Key:
Settings in all cases: incubation time: 72 h
[1] = system: BT-474; experiment: normalised response (% of control), CellTox Green; higher = less cell death (100 = DMSO, 0 = benzethonium chloride kill control)
How it was run: (§1)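 Compound was dispensed into 384-well plates at 5 concentrations in 10-fold steps spanning a 10,000-fold range specific to that compound. Breast cancer cell lines were added as 20 µl suspension and left for 72 h before CellTox Green fluorescence (485/520 nm) and then CellTiter-Glo luminescence, read after 10 min at room temperature. Each reported value is the normalised signal at one concentration, with 0.1 % DMSO set at 100 and a positive kill control at 0 on each plate.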

[2] = system: BT-549; experiment: as above
How it was run: as §1

[3] = system: CAL-120; experiment: as above
How it was run: as §1

[4] = system: CAL-148; experiment: as above
How it was run: as §1

[5] = system: CAL-51; experiment: as above
How it was run: as §1

[6] = system: CAL-85-1; experiment: as above
How it was run: as §1

[7] = system: DU-4475; experiment: as above
How it was run: as §1

[8] = system: HCC1143; experiment: as above
How it was run: as §1

[9] = system: HCC1599; experiment: as above
How it was run: as §1

[10] = system: HCC1937; experiment: as above
How it was run: as §1

[11] = system: HDQ-P1; experiment: as above
How it was run: as §1

[12] = system: Hs578T; experiment: as above
How it was run: as §1

[13] = system: MCF-10A; experiment: as above
How it was run: as §1

[14] = system: MDA-MB-231; experiment: as above
How it was run: as §1

[15] = system: MDA-MB-436; experiment: as above
How it was run: as §1

[16] = system: MDA-MB-453; experiment: as above
How it was run: as §1

[17] = system: MDA-MB-468; experiment: as above
How it was run: as §1

[18] = system: MFM-223; experiment: as above
How it was run: as §1

[19] = system: BT-474; experiment: normalised response (% of control), CellTiter-Glo; higher = more viable cells (100 = DMSO, 0 = benzethonium chloride kill control)
Procedure: (§2)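 DSRT, 72 h incubation, CellTox Green / CellTiter-Glo readout. Signal is normalised to DMSO and benzethonium chloride controls. Value is the normalised response at the highest dose.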

[20] = system: BT-549; experiment: as above
Procedure: as §2

[21] = system: CAL-120; experiment: as above
Procedure: as §2

[22] = system: CAL-148; experiment: as above
Procedure: as §2

[23] = system: CAL-51; experiment: as above
Procedure: as §2

[24] = system: CAL-85-1; experiment: as above
Procedure: as §2

[25] = system: DU-4475; experiment: as above
Procedure: as §2

[26] = system: HCC1143; experiment: as above
Procedure: as §2

[27] = system: HCC1599; experiment: as above
Procedure: as §2

[28] = system: HCC1937; experiment: as above
Procedure: as §2

[29] = system: HDQ-P1; experiment: as above
Procedure: as §2

[30] = system: Hs578T; experiment: as above
Procedure: as §2

[31] = system: MCF-10A; experiment: as above
Procedure: as §2

[32] = system: MDA-MB-231; experiment: as above
Procedure: as §2

[33] = system: MDA-MB-436; experiment: as above
Procedure: as §2

[34] = system: MDA-MB-453; experiment: as above
Procedure: as §2

[35] = system: MDA-MB-468; experiment: as above
Procedure: as §2

[36] = system: MFM-223; experiment: as above
Procedure: as §2

[37] = system: SK-BR-3; experiment: as above
Procedure: as §2

Row | SMILES | normalised response [1] [%] | normalised response [2] [%] | normalised response [3] [%] | normalised response [4] [%] | normalised response [5] [%] | normalised response [6] [%] | normalised response [7] [%] | normalised response [8] [%] | normalised response [9] [%] | normalised response [10] [%] | normalised response [11] [%] | normalised response [12] [%] | normalised response [13] [%] | normalised response [14] [%] | normalised response [15] [%] | normalised response [16] [%] | normalised response [17] [%] | normalised response [18] [%] | normalised response [19] [%] | normalised response [20] [%] | normalised response [21] [%] | normalised response [22] [%] | normalised response [23] [%] | normalised response [24] [%] | normalised response [25] [%] | normalised response [26] [%] | normalised response [27] [%] | normalised response [28] [%] | normalised response [29] [%] | normalised response [30] [%] | normalised response [31] [%] | normalised response [32] [%] | normalised response [33] [%] | normalised response [34] [%] | normalised response [35] [%] | normalised response [36] [%] | normalised response [37] [%]
1 | Cn1cc(C[C@@H](N)C(=O)O)c2ccccc21 [1-methyl-D-tryptophan] (5000 nM) | 99.7 | 90 | 99.4 | 105 | 102 | 106 | 96.5 | 124 | 98 | 106 | 60.4 | 101 | 90.3 | 99.5 | 93.1 | 99.9 | 53 | 103 | 96.4 | 97.8 | 101 | 85.7 | 107 | 98.3 | 92.9 | 102 | 87.9 | 99.5 | 111 | 97 | 97.4 | 95.7 | 95.1 | 91.4 | 96.7 | 92.5 | 93.2
2 | CC[C@H](CC#N)OC(=O)N[C@@H](C)c1cccc(NC(=O)Nc2ccc(-c3cnco3)c(OC)c2)c1 [AVN944] (10000 nM) | 96.4 | 88.5 | 102 | 67.1 | 78.9 | 101 | 89.2 | 105 | 97.1 | 96.6 | 94.6 | 48 | 85.2 | 110 | 97.9 | 107 | 124 | 100 | 48.8 | 27 | 50.6 | 41.4 | 19 | 38.4 | 15.7 | 31.5 | 33.4 | 42.2 | 42.3 | 35.4 | 58.9 | 47 | 38.1 | 62.3 | 30 | 49.7 | 37.1
3 | CCc1cnn2c(NCc3ccc[n+]([O-])c3)cc(N3CCCC[C@H]3CCO)nc12 [Dinaciclib] (1000 nM) | 88.3 | 81.4 | 80.6 | 46.3 | 71.8 | 4.91 | 90.4 | 88.2 | 74.5 | 83.6 | 48.4 | 36.3 | 47.1 | -18.6 | 86.5 | 88.2 | 31.8 | 42.2 | 20.2 | 14 | 38.1 | 67.5 | 14.3 | 8.86 | 21.8 | 19.3 | 12.3 | 27.8 | 23 | 17.1 | 21.3 | 6.98 | 19.3 | 20.6 | 6.62 | 11.5 | 2.06
4 | COc1cc(Nc2ncc(F)c(Nc3ccc4c(n3)N(COP(=O)(O)O)C(=O)C(C)(C)O4)n2)cc(OC)c1OC [Fostamatinib] (2500 nM) | 77.7 | 64.8 | 67.8 | 67.6 | 31.6 | -13.8 | 90.3 | 100 | 92.7 | 74.1 | 73.6 | 19.2 | 69 | -11.9 | 86.6 | 89.1 | 37.4 | 87.5 | 27 | 39.7 | 43.7 | 106 | 50.8 | 30.5 | 65.1 | 63.2 | 66.8 | 54 | 26.1 | 15.1 | 15.1 | 20.3 | 67.5 | 64.8 | 64.4 | 37.8 | 60.3
5 | CC(C)NC[C@@H](C(=O)N1CCN(c2ncnc3c2[C@H](C)C[C@H]3O)CC1)c1ccc(Cl)cc1 [GDC-0068] (10000 nM) | 95.7 | 76.8 | 104 | 29.8 | 77.1 | 100 | 96.6 | 110 | 95.9 | 97.5 | 67.2 | 119 | 101 | 124 | 96 | 90.9 | 46.7 | 74.7 | 86.6 | 55.3 | 70.3 | 3.54 | 36.8 | 66.1 | 75.2 | 55.8 | 82.5 | 61.5 | 58.3 | 65.1 | 58.9 | 89.5 | 77.5 | 29.6 | 43.4 | 23.3 | 44.3
6 | CCCc1cc(C)[nH]c(=O)c1CNC(=O)c1cc(-c2ccnc(N3CCN(C)CC3)c2)cc2c1cnn2C(C)C [GSK343] (10000 nM) | 4.03 | 97.6 | 78.5 | 85.5 | 106 | 56.8 | 92.7 | 68.4 | 73.6 | 101 | 80 | 79.2 | 90.1 | -68.4 | 95.2 | -8.4 | 114 | 77.3 | 11.3 | 77.1 | 79.4 | 62.8 | 120 | 30.2 | 77.8 | 68.9 | 22.8 | 100 | 66.7 | 74.4 | 97.5 | 7.92 | 53.9 | 13.7 | 11.1 | 41.8 | 11.3
7 | COc1cc2c(cc1-c1c(C)noc1C)ncc1[nH]c(=O)n([C@H](C)c3ccccn3)c12 [I-BET151] (10000 nM) | 95.2 | 81.8 | 76.1 | 72.4 | 47.1 | 48.9 | 81.2 | 104 | 93.5 | 66.3 | 72.8 | 112 | 28.1 | 45.2 | 35.5 | 98.5 | -18.1 | 104 | 59.3 | 38.5 | 64 | 71.7 | 59.5 | 30.7 | 53.3 | 59.3 | 67.6 | 72.2 | 67 | 35 | 54.5 | 62.5 | 75.6 | 21.8 | 50.6 | 49.9 | 53
8 | CC(C)n1nc(-c2ccc3oc(N)nc3c2)c2c(N)ncnc21 [INK128] (1000 nM) | 93.8 | 93.2 | 97.3 | 42 | 85.2 | 115 | 86.9 | 113 | 99.4 | 103 | 98.4 | -29.1 | 92 | 87.6 | 91.4 | 97.1 | 153 | 28.3 | 41.1 | 19.5 | 18.5 | 16.1 | 20.9 | 24.2 | 18.4 | 22.1 | 79.2 | 37 | 29.6 | 24.5 | 25.1 | 33.9 | 45.8 | 30 | 18.7 | 26.5 | 17.4
9 | N[C@@H](Cc1ccc(N(CCCl)CCCl)cc1)C(=O)O [Melphalan] (12500 nM) | -70.3 | -143 | -41.5 | -8.15 | -37.5 | -78.3 | -7.06 | -23.3 | 18.8 | -39.4 | -14.5 | -177 | -119 | -127 | -19.3 | -17.4 | -317 | -19.4 | 2.03 | 0.03 | 3.52 | 1.23 | 0.13 | 0.13 | 0.09 | 0.96 | 0.01 | 3.24 | 0.84 | -0.1 | 0.08 | 0.1 | 0.88 | 0.28 | 0.28 | 0.21 | -0.14

Source: the supplement of paper PMC4862054
